Source: patent US10696693B2, “Fused imidazole derivatives as TGF-beta inhibitors” (Rigel Pharmaceuticals, Inc., priority 2014, dated 2020)
Like-named read-outs stand apart in the source and are kept apart here.

Tests used:
GDF8 = assay: AlphaScreen SureFire p-SMAD3 (Ser423/425) assay, GDF8-stimulated cells; format: cell-based
Method in brief: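 A SureFire AlphaScreen assay measured phosphorylation of endogenous SMAD-3 at Ser423/425 in cell lysates. Cells were treated with three-fold serially diluted compounds in DMSO for about 10 minutes, then stimulated with GDF8. After medium removal, cells were lysed in 1× Lysis Buffer (about 25 μL) with gentle shaking for 5-10 minutes.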

TGF-β = assay: AlphaScreen SureFire p-SMAD3 (Ser423/425) assay, TGF-β-stimulated cells; format: cell-based
Method in brief: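 The p-SMAD-3 (Ser423/425) SureFire assay measured phosphorylation of endogenous SMAD-3 in cell lysates. Cells were plated overnight in collagen-coated plates, exposed to three-fold serially diluted compounds for about 10 minutes, then stimulated with TGFβ. Lysates (5 μL) received acceptor bead mix for 2 hours, then donor beads for 1½ hours before AlphaScreen reading.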

[1] = Mus musculus, MPC-11, p-SMAD3 (Ser423/425) AlphaScreen in cell lysate, MPC11, GDF8 stimulation, read-out: GDF8: inhibition of GDF8 signaling, GDF pSMAD (MPC11)
[2] = Mus musculus, p-SMAD3 (Ser423/425) AlphaScreen in cell lysate, MPC-11, TGF-β stimulation, read-out: TGF-β: inhibition of TGF-β signaling, TGF-β pSMAD (MPC-11)
[3] = Mus musculus, MPC-11, read-out: GDF8: inhibition of GDF8 signaling, GDF pSMAD (MPC11), p-SMAD3 (Ser423/425) AlphaScreen in cell lysate, GDF8 stimulation
[4] = Mus musculus, MPC-11, read-out: TGF-β: inhibition of TGF-β signaling, TGF-β pSMAD (MPC-11), p-SMAD3 (Ser423/425) AlphaScreen in cell lysate, TGF-β stimulation

SMILES | IC50 (GDF8; [1]) [nM] | IC50 (TGF-β; [2]) [nM] | further results
CC(C)c1nnc2ccc(-c3c(-c4ccc(F)c(F)c4F)nc4n3CCC4)cn12 [Compound 23, 3-isopropyl-6-(2-(2,3,4-trifluorophenyl)-6,7-dihydro-5H-pyrrolo[1,2-a]imidazol-3-yl)-[1,2,4]triazolo[4,3-a]pyridine] | > 1000 | > 1000 | 
OCC1Cn2c(nc(-c3cc(F)cc(F)c3F)c2-c2ccc3ncnn3c2)N1 (stereo not drawn) [Compound 121, (5-([1,2,4]triazolo[1,5-a]pyridin-6-yl)-6-(2,3,5-trifluorophenyl)-2,3-dihydro-1H-imidazo[1,2-a]imidazol-2-yl)methanol] | < 50 | < 50 | 
Cc1c(F)ccc(-c2nc3n(c2-c2ccc4ncsc4c2)CCC3)c1Cl [Compound 313, 6-(2-(2-chloro-4-fluoro-3-methylphenyl)-6,7-dihydro-5H-pyrrolo[1,2-a]imidazol-3-yl)benzo[d]thiazole] |  |  | IC50 (GDF8; [3]): 100 to 1000 nM; IC50 (TGF-β; [4]): 100 to 1000 nM
Fc1cc(F)c(-c2nc3n(c2-c2ccc4ncsc4c2)CCN3)cc1F [Compound 103, 6-(6-(2,4,5-trifluorophenyl)-2,3-dihydro-1H-imidazo[1,2-a]imidazol-5-yl)benzo[d]thiazole] | < 50 | < 50 | 
Cc1cccc(-c2nc3occn3c2-c2ccc3ncccc3c2)c1 [Compound 144, 5-(quinolin-6-yl)-6-(m-tolyl)imidazo[2,1-b]oxazole] | < 50 | 50 to 100 | 
CC(=O)N1c2nc(-c3cc(F)cc(F)c3F)c(-c3ccc4ncnn4c3)n2CC1C(=O)O (stereo not drawn) [Compound 119, 5-([1,2,4]triazolo[1,5-a]pyridin-6-yl)-1-acetyl-6-(2,3,5-trifluorophenyl)-2,3-dihydro-1H-imidazo[1,2-a]imidazole-2-carboxylic acid] | < 50 | < 50 | 
Fc1ccc(-c2nc3occn3c2-c2ccc3nccnc3c2)cc1 [Compound 130, 6-(4-fluorophenyl)-5-(quinoxalin-6-yl)imidazo[2,1-b]oxazole] | 100 to 1000 | 100 to 1000 | 
Cc1cc(-c2nc3n(c2-c2ccc4ncsc4c2)CCC3)c(Cl)cc1F [Compound 317, 6-(2-(2-chloro-4-fluoro-5-methylphenyl)-6,7-dihydro-5H-pyrrolo[1,2-a]imidazol-3-yl)benzo[d]thiazole] |  |  | IC50 (GDF8; read-out: GDF8: inhibition of GDF8 signaling, GDF pSMAD (MPC11), p-SMAD3 (Ser423/425) AlphaScreen in cell lysate, GDF8 stimulation): 50 to 100 nM; IC50 (TGF-β; read-out: TGF-β: inhibition of TGF-β signaling, TGF-β pSMAD (MPC-11), p-SMAD3 (Ser423/425) AlphaScreen in cell lysate, TGF-β stimulation): 100 to 1000 nM
COc1cccc(-c2nc3n(c2-c2ccc4nccnc4c2)CCC3)c1 [Compound 188, 6-(2-(3-methoxyphenyl)-6,7-dihydro-5H-pyrrolo[1,2-a]imidazol-3-yl)quinoxaline] |  |  | IC50 (GDF8; [3]): 100 to 1000 nM; IC50 (TGF-β; [4]): 100 to 1000 nM
Fc1ccc(-c2nc3n(c2-c2ccc4ncccc4c2)CC2(CCCC2)C3)cc1 [Compound 327, 2′-(4-fluorophenyl)-3′-(quinolin-6-yl)-5′H,7′H-spiro[cyclopentane-1,6′-pyrrolo[1,2-a]imidazole]] |  |  | IC50 (GDF8; [3]): > 1000 nM; IC50 (TGF-β; [4]): > 1000 nM
CC(=O)N1CCn2c1nc(-c1cc(F)c(F)cc1F)c2-c1ccc2ncnn2c1 [Compound 104, 1-(5-([1,2,4]triazolo[1,5-a]pyridin-6-yl)-6-(2,4,5-trifluorophenyl)-2,3-dihydro-1H-imidazo[1,2-a]imidazol-1-yl)ethan-1-one] | > 1000 | > 1000 | 
Clc1cccc(-c2nc3n(c2-c2ccc4cn[nH]c4c2)CCC3)c1 [Compound 190, 6-(2-(3-chlorophenyl)-6,7-dihydro-5H-pyrrolo[1,2-a]imidazol-3-yl)-1H-indazole] |  |  | IC50 (GDF8; [3]): < 50 nM; IC50 (TGF-β; [4]): 50 to 100 nM
COc1ccc(-c2nc3n(c2-c2ccc4ncccc4c2)CCC3)cc1 [Compound 352, 6-(2-(4-methoxyphenyl)-6,7-dihydro-5H-pyrrolo[1,2-a]imidazol-3-yl)quinoline] |  |  | IC50 (GDF8; [3]): > 1000 nM; IC50 (TGF-β; [4]): > 1000 nM
Fc1ccc(-c2nc3occn3c2-c2ccc3cn[nH]c3c2)cc1F [Compound 134, 6-(3,4-difluorophenyl)-5-(1H-indazol-6-yl)imidazo[2,1-b]oxazole] | 50 to 100 | 100 to 1000 | 

Second part, led by results:

IC50 (GDF8; [1]) [nM] | IC50 (TGF-β; [2]) [nM] | SMILES | further results
100 to 1000 | > 1000 | Fc1ccccc1-c1nc2n(c1-c1ccc3[nH]ncc3c1)CCC2 [Compound 197, 5-(2-(2-fluorophenyl)-6,7-dihydro-5H-pyrrolo[1,2-a]imidazol-3-yl)-1H-indazole] | 
100 to 1000 | 100 to 1000 | Fc1ccc(-c2nc3occn3c2-c2ccc3nccnc3c2)c(F)c1F [Compound 164, 5-(quinoxalin-6-yl)-6-(2,3,4-trifluorophenyl)imidazo[2,1-b]oxazole] | 
100 to 1000 | > 1000 | Fc1ccccc1-c1nc2n(c1-c1ccc3nccnc3c1)CCC2 [Compound 200, 6-(2-(2-fluorophenyl)-6,7-dihydro-5H-pyrrolo[1,2-a]imidazol-3-yl)quinoxaline] | 
> 1000 | > 1000 | Cc1cc(-c2nc3n(c2-c2ccc4nccnc4c2)CCC3)cc(Cl)c1F [Compound 274, 6-(2-(3-chloro-4-fluoro-5-methylpheny)-6,7-dihydro-5H-pyrrolo[1,2-a]imidazol-3-yl)quinoxaline] | 
> 1000 | > 1000 | Cc1ccc(F)cc1-c1nc2n(c1-c1ccc3ncnn3c1)CCC2 [Compound 58, 6-(2-(5-fluoro-2-methylphenyl)-6,7-dihydro-5H-pyrrolo[1,2-a]imidazol-3-yl)-[1,2,4]triazolo[1,5-a]pyridine] | 
> 1000 | > 1000 | Cc1cc(-c2nc3n(c2-c2ccc4ncccc4c2)CCC3)c(F)cc1Cl [Compound 255] | 
< 50 | 50 to 100 | Cc1cccc(-c2nc3n(c2-c2ccc4cn[nH]c4c2)CCC3)c1 [Compound 169, 6-(2-(m-tolyl)-6,7-dihydro-5H-pyrrolo[1,2-a]imidazol-3-yl)-1H-indazole] | 
> 1000 | > 1000 | Cc1cc(-c2nc3n(c2-c2ccc4nccn4c2)CCC3)cc(C)c1Cl [Compound 25, 6-(2-(4-chloro-3,5-dimethylphenyl)-6,7-dihydro-5H-pyrrolo[1,2-a]imidazol-3-yl)imidazo[1,2-a]pyridine] | 
100 to 1000 | 100 to 1000 | Fc1cc(Cl)c(-c2nc3n(c2-c2ccc4ncnn4c2)CCC3)cc1F [Compound 49, 6-(2-(2-chloro-4,5-difluorophenyl)-6,7-dihydro-5H-pyrrolo[1,2-a]imidazol-3-yl)-[1,2,4]triazolo[1,5-a]pyridine] | 
50 to 100 | 100 to 1000 | Fc1ccc(-c2nc3n(c2-c2ccc4ncsc4c2)CCC3)cc1Cl [Compound 265, 6-(2-(3-chloro-4-fluoropheny)-6,7-dihydro-5H-pyrrolo[1,2-a]imidazol-3-yl)benzo[d]thiazole] | 
50 to 100 | 100 to 1000 | Fc1ccc(-c2nc3n(c2-c2ccc4nccnc4c2)CCC3)cc1Cl [Compound 266, 6-(2-(3-chloro-4-fluoropheny)-6,7-dihydro-5H-pyrrolo[1,2-a]imidazol-3-yl)quinoxaline] | 
> 1000 | > 1000 | Cc1cc(F)ccc1-c1nc2n(c1-c1ccc3ncccc3c1)CCC2 [Compound 295, 6-(2-(4-fluoro-2-methylphenyl)-6,7-dihydro-5H-pyrrolo[1,2-a]imidazol-3-yl)quinoline] | 
100 to 1000 | 100 to 1000 | Cc1cc(F)ccc1-c1nc2n(c1-c1ccc3ncsc3c1)CCC2 [Compound 293, 6-(2-(4-fluoro-2-methylphenyl)-6,7-dihydro-5H-pyrrolo[1,2-a]imidazol-3-yl)benzo[d]thiazole] | 
< 50 | 50 to 100 | Clc1ccc(Cl)c(-c2nc3n(c2-c2ccc4nccnc4c2)CCC3)c1 [Compound 348, 6-(2-(2,5-dichloropheny)-6,7-dihydro-5H-pyrrolo[1,2-a]imidazol-3-yl)quinoxaline] | 
100 to 1000 | > 1000 | Fc1cc(F)c(F)c(-c2nc3n(c2-c2ccc4ncccc4c2)CCC3)c1 [Compound 237, 6-(2-(2,3,5-trifluorophenyl)-6,7-dihydro-5H-pyrrolo[1,2-a]imidazol-3-yl)quinoline] | 
100 to 1000 | 100 to 1000 | N#Cc1cnc2ccc(-c3c(-c4ccc(F)c(Cl)c4)nc4n3CCC4)cn12 [Compound 61, 6-(2-(3-chloro-4-fluorophenyl)-6,7-dihydro-5H-pyrrolo[1,2-a]imidazol-3-yl)imidazo[1,2-a]pyridine-3-carbonitrile] | 
> 1000 | > 1000 | Cc1ccccc1-c1nc2n(c1-c1ccc3[nH]ncc3c1)CCC2 [Compound 304, 5-(2-(o-tolyl)-6,7-dihydro-5H-pyrrolo[1,2-a]imidazol-3-yl)-1H-indazole] | 
100 to 1000 | 100 to 1000 | Fc1ccc(-c2nc3n(c2-c2ccc4ncccc4c2)CCC3)cc1Cl [Compound 267, 6-(2-(3-chloro-4-fluoropheny)-6,7-dihydro-5H-pyrrolo[1,2-a]imidazol-3-yl)quinoline] | 
< 50 | < 50 | Fc1cc(F)c(F)c(-c2nc3n(c2-c2ccc4nccnc4c2)CCN3)c1 [Compound 111, 6-(6-(2,3,5-trifluorophenyl)-2,3-dihydro-1H-imidazo[1,2-a]imidazol-5-yl)quinoxaline] | 
